Laboratory results reported in ChEMBL document CHEMBL1909557, “Oligopeptide cyclophilin inhibitors: a reassessment” (Eur J Med Chem, 2011).
The source made the active and inactive calls. Peptide text beside a SMILES is read from it.

Columns and labels:
[1] = biological target: Peptidyl-prolyl cis-trans isomerase A (Homo sapiens) (UniProt P62937); assay: Binding affinity to human recombinant cyclophilin-A up to 25 uM by isothermal titration calorimetry assay
[2] = biological target: Peptidyl-prolyl cis-trans isomerase A (Homo sapiens) (UniProt P62937); assay: Inhibition of PPIase activity of human recombinant cyclophilin-A using succinyl-Ala-Ala-Pro-Phe-4-nitroanilide as substrate at 100 uM by protease coupled assay
[3] = biological target: Peptidyl-prolyl cis-trans isomerase A (Homo sapiens) (UniProt P62937); assay: Inhibition of PPIase activity of human recombinant cyclophilin-A using succinyl-Ala-Ala-Pro-Phe-4-nitroanilide as substrate at 100 uM pretreated for 3 hrs before substrate addition by spectrophotometry

Sequence of Peptidyl-prolyl cis-trans isomerase A (Homo sapiens) (P62937 whole entry, looked up): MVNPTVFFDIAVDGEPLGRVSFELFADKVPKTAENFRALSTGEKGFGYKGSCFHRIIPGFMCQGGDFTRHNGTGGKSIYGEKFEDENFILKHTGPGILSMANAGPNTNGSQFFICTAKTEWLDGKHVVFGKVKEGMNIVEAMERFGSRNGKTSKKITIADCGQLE

N[C@@H](Cc1c[nH]c2ccccc12)C(=O)NCC(=O)N1CCC[C@H]1C(=O)O (H-Trp-Gly-Pro-OH)
inactive: Activity [1] | inhibition [2] | inhibition [3]
